# Like-named read-outs stand apart in the source and are kept apart here.
# Legend:
# [1] = powder diffraction of sample tablets after acceleration; type: physicochemical; details: sample tablets accelerated for two months
# Excerpt: Chinese patent CN1101704763A recites a preparation method of the I-form crystals. […] Changes in crystal forms, on the one hand may result in infringement, and on the other hand may further lead to inconsistency in bioavailability of drugs. Therefore, it is very important to solve the problem of stability of crystal forms during the processes of the tablet manufacture and preservation.
# [2] = test on influencing factors (high temperature, high humidity); type: physicochemical
# Procedure: 2) Test on influencing factors: we investigated in combination with formulations of the present invention: the samples were allowed to stand in an open state for 30 days under the conditions of a high temperature of 60° C., a high humidity of RH 92%, and both high temperature and high humidity (40° C., RH75%), respectively.
# [3] = solubility of crystalline I-form agomelatine in solvents; type: physicochemical
# [4] = stability in the process: crystal form purity (DSC) and relevant substances (HPLC); type: physicochemical; details: stage of the manufacturing process
# Excerpt: Referring to the aforementioned test 6, tablets were manufactured according to formulation and process with hydroxyproplyl methyl cellulose and polyvinylpyrrolindone k30 in a concentration of 15% as a protective agent.
# 1) Stability in the process: crystal form purity of the tablets was detected using DSC method with crystal forms and relevant substances as evaluation indexes. Regarding detection of relevant substances, HPLC method was adopted using imported drug as a standard.
# [5] = I-form crystal purity by DSC of raw material after pulverization, grinding, tabletting; type: physicochemical
# Excerpt: Change of the crystalline I-form raw material in pulverization, grinding, and tabletting (at a pressure of 10 kg) was detected by DSC (see FIGS. 1-4).
# [6] = system: brain nerve cells of an adult rat; details: cited from earlier work
Crystal form purity % ([2]; 0 day),"Crystal form purity % ([2]; 10 days at a high humidity (RH 92%), open state)","Crystal form purity % ([2]; 10 days at a high temperature (60° C.), open state)","Crystal form purity % ([2]; 10 days at both high temperature and high humidity (40° C., RH75%), open state)",solubility ([3]; in DMSO),solubility ([3]; in acetonitrile),solubility ([3]; in ethanol),solubility ([3]; in methanol),solubility ([3]; in water),Crystal form purity ([4]; DSC),Relevant substances ([4]; HPLC),I-form crystal purity (%) detected by DSC ([5]; after grinding),I-form crystal purity (%) detected by DSC ([5]; after pulverization),I-form crystal purity (%) detected by DSC ([5]; after tabletting at a pressure of 10 kg),"I-form crystal purity (%) detected by DSC ([5]; raw material, untreated)",Structure (SMILES),crystal form by powder diffraction [1],cell proliferation and neuronal regeneration in hippocampal ventral dentate gyrus ([6]; acute or subacute administration (4 hours or nine weeks)),cell proliferation and neuronal regeneration in hippocampal ventral dentate gyrus ([6]; long-term (three weeks) administration)
100%,80%,65%,35%,very soluble,very soluble,very soluble,very soluble,almost insoluble,100,0.32%,97.5%,90.0%,74.3%,100%,COc1ccc2cccc(CCNC(C)=O)c2c1 [agomelatine],almost completely converted to the II form,–,–
–,–,–,–,–,–,–,–,–,–,–,–,–,–,–,"COc1ccc2cccc(CCNC(C)=O)c2c1 [Agomelatine, agomelatine]",–,no similar situation occurred,increase cell proliferation and neuronal regeneration

# Reference: US20160193162A1 (TIANJIN TAIPU PHARMACEUTICAL SCIENCE & TECHNOLOGY …, priority 2013, published 2016)
